The test system of assay [1] is human β-defensin-3 (hBD-3). As to the kind of experiment: Expression of antimicrobial peptide BD-3 in human epidermal keratinocytes, real-time PCR. Type of assay: cell-based. As to conditions: NHEKs, 1% sample (in H2O), 24 hours, gene level, FIG. 3. How it is done:
(§1) In order to confirm the effect of enhancing the skin immunity and defense of each of Examples and Comparative Example of the present invention, the activities of peptide LL-37 (cathelicidin-related antimicrobial peptide (CAMP)), human β-defensin-2 (hBD-2), and human β-defensin-3 (hBD-3) having antimicrobial efficacy were confirmed.
(§2) In order for the confirmation, human epidermal keratinocytes (NHEKs) were dispensed into a 96-well plate, and the cells were cultured under cell culture conditions for 24 hours. Thereafter, the cells were treated with a control, DMSO, and a 1% sample (in H2O) of each of Examples and Comparative Example, and the cells were additionally cultured for 24 hours. A real-time PCR method was performed to determine LL-37, BD-2, and BD-3 at a gene-level. The test procedure is as follows.
(§3) SuperPrep™ cell lysis and RT Kit for qPCR (TOYOBO, SCQ-101) were used for RNA isolation and cDNA synthesis. The cells from which the medium was removed were washed once with phosphate-buffered saline (PBS), 50 μl of a cell lysis mixture (including gDNA remover) was added and reacted for 5 minutes, and then, a stop solution was added. […] QuantiTect primer assays of Qiagen were used in the experiment as a primer, and the expression levels of LL-37, BD-2, and BD-3 in the samples were quantified as GADPH and compared with each other. […]

The test system of assay [2] is LL-37 (cathelicidin-related antimicrobial peptide (CAMP)). The experiment in a line: Expression of antimicrobial peptide LL-37 in human epidermal keratinocytes, real-time PCR. Type of assay: cell-based. The conditions noted are these: NHEKs, 1% sample (in H2O), 24 hours, gene level, FIG. 1. The procedure: as §1, §2, §3
Assay [3] concerns human β-defensin-2 (hBD-2). As to the kind of experiment: Expression of antimicrobial peptide BD-2 in human epidermal keratinocytes, real-time PCR. Type of assay: cell-based. The conditions noted are these: NHEKs, 1% sample (in H2O), 24 hours, gene level, FIG. 2. How it is done:
as §1, §2, §3

In another assay the test system is desmoglein1 (DSG1) gene. The experiment in a line: Expression of desmoglein1 (DSG1) gene in UVB-irradiated NHEKs, Taqman real-time PCR. Type of assay: cell-based, human. The conditions noted are these: UVB 25 mJ/cm^2, 10 nM sample, 4th day of culture, FIG. 6. How it is done:
In order to confirm the effect of strengthening the skin barrier of each of Examples and Comparative Example of the present invention, an expression level of DSG1 gene as an intercellular binding factor was confirmed.
Specifically, normal human epidermal keratinocytes (NHEKs) were cultured in a 6-well plate incubator. After 24 hours, the keratinocyes were washed with phosphate-buffered saline (PBS), irradiation with UVB (25 mJ/cm^2) was performed, a 10 nM sample of each of Examples and Comparative Example was added to the NHEK culture medium, and then, culture was performed. The cells were harvested on the 4th day of culture, RNA was separated, cDNA was synthesized by a reverse transcriptional polymerase chain reaction (RT-PCR), Taqman real-time PCR was performed using the synthesized cDNA, and then, the expression level of the DSG1 gene as a keratinocyte differentiation marker was measured.

Another assay deals with filaggrin. As to the kind of experiment: Expression level of filaggrin in keratinocytes, real-time PCR. In kind it is cell-based. The conditions noted are these: 24 hours, versus untreated control, FIG. 5. The procedure:
In order to measure the effect of promoting the expression of moisturizing factors of each of Examples and Comparative Example of the present invention, the expression levels of filaggrin and loricrin were measured.
Specifically, keratinocytes purchased from Invitrogen Corporation were cultured in EpiLife (keratinocyte growth medium) containing a supplement (human keratinocyte growth supplement (HKGS)) for a predetermined time, and then, the cells were subcultured three times and then used. The keratinocytes which were subcultured three times were cultured to a confluence of 70 to 80% in a 6-well plate, each of the wells was separately treated with each of the samples, and then, the keratinocytes were cultured for a total of 24 hours. RNA of the keratinocytes was extracted from the cultured cells using easy BLUE, and then, cDNA synthesis was performed using SuperScript reverse transcriptase III kit. Real-time PCR for comparing the genes was performed using 2× TaqMan universal PCR mixture (10 μl), 20× TaqMan expression assay mix (1 μl), cDNA (50 ng), and a primer (Filaggrin: Hs00856927_g1*, Loricrin: Hs01894962_s1*) and a 7500 Fast Real-Time PCR system. In addition, a sample treated with 10 μM IGF-1 was used as a positive control group, and a control that was not treated with the sample was used as a comparison group.

As for `CCCCCC(=O)N[C@@H](Cc1ccc(O)cc1)C(=O)OC` [Comparative Example 1, Defensamide], the “expression level of antimicrobial peptide BD-3 relative to that in Example 2” value in assay [1] came to 40%. In assay [2], the “expression level of antimicrobial peptide LL-37 relative to that in Example 2” value is on record as 40%. In assay [3], the “expression level of antimicrobial peptide BD-2 relative to that in Example 2” value is recorded as 33%.

Regarding `CCCCCCCCCC(=O)NC(CO)C(=O)OCC` (stereo not shown) [Example 1, N-(1-oxodecyl)serine ethyl ester], the “expression level of desmoglein1, increase relative to the expression level in the UVB treatment group” value in the assay on desmoglein1 (DSG1) gene is no less than 4.1 times. The “expression level of filaggrin, increase relative to the expression level in the control” value with filaggrin was no less than 4.3 times.

For `CCCCCCCCCC(=O)NC(CO)C(=O)OC` (stereo not shown) [Example 2, N-(1-oxodecyl)serine methyl ester], the “expression level of desmoglein1, increase relative to the expression level in the UVB treatment group” value in the assay on desmoglein1 (DSG1) gene is reported as no less than 4.5 times. Besides, the “expression level of filaggrin, increase relative to the expression level in the control” value in the assay on filaggrin is no less than 3.8 times.

Source of the values: US20220142888A1, “COMPOSITION FOR IMPROVING SKIN CONDITIONS” (NEOPHARM CO., LTD., priority 2020, published 2022).
